According to ChEMBL document CHEMBL5725827, “2-pyridyloxy-3-ester-4-nitrile orexin receptor antagonists” (2017):

Target: Orexin/Hypocretin receptor type 1 (Rattus norvegicus, UniProt P56718)
Experiment: Radioligand Binding Assay: Described in Bergman et. al. Bioorg. Med. Chem. Lett. 2008, 18, 1425-1430.
Parameters: species or system Homo sapiens

Orexin/Hypocretin receptor type 1, sequence (P56718 whole entry, looked up): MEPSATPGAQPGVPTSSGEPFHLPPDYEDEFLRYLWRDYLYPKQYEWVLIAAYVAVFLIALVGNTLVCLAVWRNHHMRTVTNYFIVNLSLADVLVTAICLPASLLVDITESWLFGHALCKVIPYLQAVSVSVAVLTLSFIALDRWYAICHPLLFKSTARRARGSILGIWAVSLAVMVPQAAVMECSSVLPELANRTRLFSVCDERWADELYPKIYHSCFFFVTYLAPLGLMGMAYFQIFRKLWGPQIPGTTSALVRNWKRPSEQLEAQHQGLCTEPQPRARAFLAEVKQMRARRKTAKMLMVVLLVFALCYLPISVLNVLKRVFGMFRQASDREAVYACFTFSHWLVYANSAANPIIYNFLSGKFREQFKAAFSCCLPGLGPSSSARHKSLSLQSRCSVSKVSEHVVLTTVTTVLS

Ki | Compound
210 nM | COC(=O)c1c(C#N)ccnc1O[C@@H]1CC[C@@H](C)N(C(=O)c2cccc(F)c2-n2nccn2)C1
144 nM | COC(=O)c1c(C#N)ccnc1O[C@@H]1CC[C@@H](C)N(C(=O)c2cc(F)ccc2-n2nccn2)C1
46 nM | COC(=O)c1c(C#N)ccnc1O[C@@H]1CC[C@@H](C)N(C(=O)c2cc(F)ccc2-c2ncccn2)C1
75.6 nM | COC(=O)c1c(C#N)ccnc1O[C@@H]1CC[C@@H](C)N(C(=O)c2ccc(F)cc2-c2ncccn2)C1
405 nM | COC(=O)c1c(C#N)ccnc1O[C@@H]1CC[C@@H](C)N(C(=O)c2ccc(F)cc2-c2nc(C)no2)C1
175 nM | COC(=O)c1c(C#N)ccnc1O[C@@H]1CC[C@@H](C)N(C(=O)c2ccc(F)cc2-n2nccn2)C1
73.8 nM | COC(=O)c1c(C#N)ccnc1O[C@@H]1CC[C@@H](C)N(C(=O)c2ccccc2-c2nc(C)no2)C1
56 nM | COC(=O)c1c(C#N)ccnc1O[C@@H]1CC[C@@H](C)N(C(=O)c2ccccc2-n2nccn2)C1
128 nM | COC(=O)c1c(C#N)ccnc1O[C@@H]1CC[C@@H](C)N(C(=O)c2cccc(F)c2-c2noc(C)n2)C1
117 nM | COC(=O)c1c(C#N)ccnc1O[C@@H]1CC[C@@H](C)N(C(=O)c2cc(F)ccc2-c2noc(C)n2)C1
153 nM | COC(=O)c1c(C#N)ccnc1O[C@@H]1CC[C@@H](C)N(C(=O)c2cc(F)ccc2-c2nc(C)no2)C1
25.8 nM | COC(=O)c1c(C#N)ccnc1O[C@@H]1CC[C@@H](C)N(C(=O)c2cc(C)ccc2-n2nccn2)C1
86.6 nM | COC(=O)c1c(C#N)ccnc1O[C@@H]1CC[C@@H](C)N(C(=O)c2ccccc2-c2noc(C)n2)C1
37.1 nM | COC(=O)c1c(C#N)ccnc1O[C@@H]1CC[C@@H](C)N(C(=O)c2c(C)cccc2-n2nccn2)C1
63 nM | COC(=O)c1c(C#N)ccnc1O[C@@H]1CC[C@@H](C)N(C(=O)c2c(F)cccc2-n2nccn2)C1
